From patent EP4810508A1, “ARABINOSE DERIVATIVE COMPOUND, AND COMPOSITION COMPRISING SAME FOR PREVENTING OR TREATING DEGENERATIVE BRAIN DISEASES” (Digmbio. Inc., priority 2023, dated 2025)
Like-named read-outs stand apart in the source and are kept apart here.

System: HRE/Luc/HEK293 cells
Experiment: HRE (Hypoxia Response Element) luciferase assay
Format: cell-based, human
Conditions: for fold induction at 10 µM / fold induction at 100 µM: Homo sapiens; for HRE expression: low concentration of 1 µM; for HRE assay: increase in HRE expression levels by the test substance relative to the vehicle in HRE/Luc/HEK293 cells
Experimental: • (a) HRE assay: Confirmation of increased in HRE expression levels by the test substance relative to the vehicle in HRE/Luc/HEK293 cells • * Less than a twofold increase at 100 µM, • ** More than a twofold increase at 100 µM, • *** More than a twofold increase at 10 µM, • **** More than a twofold increase at 1 µM, • Not performed.
It has been reported that in the brains of AD patients, blood supply is mostly insufficient, resulting in oxygen levels being up to 50% lower than those of normal individuals, leading to increased oxidative stress (ROS) and neuroinflammation. It has also been studied that when the HIF-1α (hypoxia inducible factor-1) factor binds to the HRE (hypoxia response element), it increases VEGF (vascular endothelial growth factor), which promotes the formation of new blood vessels, thereby increasing oxygen levels in the brain and helping to inhibit nerve cell damage.
A reporter gene containing luciferase, capable of verifying the level of HRE expression, was inserted into HEK-293 human embryonic kidney cells, and HRE/Luc/HEK293 cells were constructed by inserting a plasmid (HRE/Luc) with luciferase attached downstream of the HRE promoter that binds to HIF-1α using lipofectamine (Invitrogen).
To perform HRE luciferase analysis, HRE/Luc/HEK293 cells were seeded in 96-well culture plates at a cell density of 4 x 10^4 per well in minimal essential medium (MEM) containing 10% fetal bovine serum. After one day, the cell medium was removed and replaced with medium mixed with various concentrations of example compounds. Six hours after compound pretreatment, HRE/Luc/HEK293 cells were cultured under hypoxic conditions (O2 0.1%) for 18 hours. Subsequently, the cells were washed with phosphate buffer, lysed with lysis buffer, and then the luciferase reagent (Promega) for luciferase analysis was added. Afterward, changes in HRE expression levels associated with HIF-1 signaling were evaluated by measuring luminescence using an Infinite200 (Tecan).

[1] = HEK293, 18 h, 10uM, Table 2 (Examples 75-109, 114), read-out: HRE-inceasing 10uM
[2] = HEK293, 18 h, 100uM, Table 2 (Examples 75-109, 114), read-out: HRE-inceasing 100uM
[3] = HEK293, 10uM, fold increase of HRE expression, hypoxic conditions (O2 0.1%) 18 hours, Table 2, read-out: HRE-increasing 10uM
[4] = HEK293, 100uM, fold increase of HRE expression, hypoxic conditions (O2 0.1%) 18 hours, Table 2, read-out: HRE-increasing 100uM
[5] = HEK293, 18 h, 10uM, Table 2 (Examples 37-74, 52), read-out: HKt-increasing 10uM
[6] = HEK293, 18 h, 100uM, Table 2 (Examples 37-74, 52), read-out: HKt-increasing 100uM

## COc1ccc2oc(-c3ccc(O[C@@H]4OC[C@H](O)[C@H](O)[C@H]4O)cc3)nc2c1 [Example 92, (2S,3R,4S,5S)-2-(4-(5-methoxybenzo[d]oxazol-2-yl)phenoxy)tetrahydro-2H-pyran-3,4,5-triol]
[1]
  fold induction at 10 µM: 3
[2]
  fold induction at 100 µM: 1.6
  HRE expression: more than threefold

## CC(C)c1ccc(Cc2ccc(S[C@@H]3OC[C@H](O)[C@H](O)[C@H]3O)cc2)cc1 [Example 28, (2S,3R,4S,5S)-2-((4-(4-isopropylbenzyl)phenyl)thio) tetrahydro-2H-pyran-3,4,5-triol]
[3]
  fold induction at 10 µM: 1.8

## COc1ccc(Cc2ccc(O[C@@H]3OC[C@H](O)[C@H](O)[C@H]3O)cc2)cc1 [Example 4]
[3]
  fold induction at 10 µM: 1.1
[4]
  fold induction at 100 µM: < 1
  HRE assay: α

## CC(C)c1ccc2nc(-c3ccc(O[C@@H]4OC[C@H](O)[C@H](O)[C@H]4O)cc3)oc2c1 [Example 89, (2S,3R,4S,5S)-2-(4-(6-isopropylbenzo[d]oxazol-2-yl)phenoxy)tetrahydro-2H-pyran-3,4,5-triol]
[1]
  fold induction at 10 µM: 2.8
[2]
  fold induction at 100 µM: < 1

## COc1ccc(Cc2ccc(O[C@H]3OC[C@H](O)[C@H](O)[C@H]3OC(=O)CCCCCCCCCN)cc2)cc1 [Example 79, (2R,3R,4S,5S)-4,5-dihydroxy-2-(4-(4-methoxybenzyl)phenoxy)tetrahydro-2H-pyran-3-yl 10-aminodecanoate]
[1]
  fold induction at 10 µM: 1
[2]
  fold induction at 100 µM: 1.7

## COc1ccc(Cc2ccc(O[C@H]3OC[C@H](O)[C@H](O)[C@H]3N)cc2)cc1 [Example 78]
[1]
  fold induction at 10 µM: 12
[2]
  fold induction at 100 µM: 2.4

## CCc1ccc2c(-c3ccc(O[C@H]4OC[C@H](O)[C@H](O)[C@H]4O)cc3)coc2c1 [Example 95, (2R,3R,4S,5S)-2-(4-(6-ethylbenzofuran-3-yl)phenoxy) tetrahydro-2H-pyra-3,4,5-triol]
[1]
  fold induction at 10 µM: 2.6
[2]
  fold induction at 100 µM: 3.1

## O[C@@H]1[C@@H](O)[C@@H](Oc2ccc(Cc3cc(C(F)(F)F)cc(C(F)(F)F)c3)cc2)OC[C@@H]1O [Example 16, (2R,3R,4S,5S)-2-(4-(3,5-bis(trifluoromethyl)benzyl)phenoxy) tetrahydro-2H-pyran-3,4,5-triol]
[3]
  fold induction at 10 µM: 1
[4]
  fold induction at 100 µM: < 1

## O[C@@H]1[C@@H](O)[C@@H](Oc2ccc(Cc3ccc(OC4CCCC4)cc3)cc2)OC[C@@H]1O [Example 45, (2R,3R,4S,5S)-2-(4-(4-(cyclopentyloxy)benzyl)phenoxy)tetrahydro-2H-pyran-3,4,5-triol]
[5]
  fold induction at 10 µM: 1.1
[6]
  fold induction at 100 µM: 1.3

## Cc1ccc2c(ccn2-c2ccc(O[C@H]3OC[C@H](O)[C@H](O)[C@H]3O)cc2)c1 [Example 90, (2R,3R,4S,5S)-2-(4-(5-methyl-1H-indol-1-yl)phenoxy)tetrahydro-2H-pyran-3,4,5-triol]
[1]
  fold induction at 10 µM: 1.7
[2]
  fold induction at 100 µM: 2.4

## O[C@@H]1[C@@H](O)[C@H](Oc2ccc(Cc3cccnc3)cc2)OC[C@@H]1O [Example 24, (2S,3R,4S,5S)-2-(4-(pyridin-3-ylmethyl)phenoxy)tetrahydro-2H-pyran-3,4,5-triol]
[3]
  fold induction at 10 µM: 1.1
[4]
  fold induction at 100 µM: 1.1

## O[C@@H]1[C@@H](O)[C@@H](Oc2ccc(Cc3ccc(OC(F)(F)F)cc3)cc2)OC[C@@H]1O [Example 10]
10uM, fold increase of HRE expression, hypoxic conditions (O2 0.1%) 18 hours, Table 2
  HRE-increasing 10uM: 1
100uM, fold increase of HRE expression, hypoxic conditions (O2 0.1%) 18 hours, Table 2
  HRE-increasing 100uM: <1
  HRE assay: •

## CC(C)c1ccc(-c2ccc(O[C@@H]3OC[C@H](O)[C@H](O)[C@H]3O)cc2)cc1 [Example 87, (2S,3R,4S,5S)-2-((4'-isopropyl-[1,1'-biphenyl]-4-yl)oxy)tetrahydro-2H-pyran-3,4,5-triol]
[1]
  fold induction at 10 µM: 2.4
[2]
  fold induction at 100 µM: 3.1

## CC(C)c1ccc(Oc2ccc(O[C@H]3OC[C@@H](O)[C@H](O)[C@H]3O)c(Cl)c2)cc1 [Example 67, (2R,3R,4S,5R)-2-(2-chloro-4-(4-isopropylphenoxy)henoxy)tetrahydro-2H-pyran-3,4,5-triol]
[5]
  fold induction at 10 µM: 3.5
[6]
  fold induction at 100 µM: 2.6
  HRE expression: more than threefold

## COc1ccc2oc(-c3cccc(O[C@@H]4OC[C@H](O)[C@H](O)[C@H]4O)c3)nc2c1 [Example 106, (2S,3R,4S,5S)-2-(3-(5-methoxybenzo[d]oxazol-2-yl)phenoxy)tetrahydro-2H-pyran-3,4,5-triol]
[1]
  fold induction at 10 µM: 3.4
[2]
  fold induction at 100 µM: 1.7
  HRE expression: more than threefold

## CC(C)Oc1ccc(Cc2ccc(O[C@H]3OC[C@H](O)[C@H](O)[C@H]3O)cc2)cc1 [Example 44]
[5]
  fold induction at 10 µM: 1.1
[6]
  fold induction at 100 µM: 1.3

## Cc1ccc2oc(-c3ccc(O[C@H]4OC[C@H](O)[C@H](O)[C@H]4O)c(F)c3)nc2c1 [Example 105, (2R,3R,4S,5S)-2-(2-fluoro-4-(5-methylbenzo[d]oxazol-2-yl)phenoxy)tetrahydro-2H-pyran 3,4,5-triol]
[1]
  fold induction at 10 µM: 2.5
[2]
  fold induction at 100 µM: 3.7

## O=C(c1ccc(O[C@H]2OC[C@H](O)[C@H](O)[C@H]2O)cc1)c1ccco1 [Example 115, furan-2-yl(4-(((2R,3R,4S,5S)-3,4,5-trihydroxytetrahydro-2H-pyran-2-yl)oxy)phenyl)methanone]
[3]
  fold induction at 10 µM: 1
[4]
  fold induction at 100 µM: 1.4

## CO[C@H]1[C@@H](Oc2ccc(Oc3ccc(C(C)C)cc3)cc2)OC[C@H](O)[C@@H]1O [Example 62, (3S,4S,5R,6R)-6-(4-(4-isopropylphenoxy)phenoxy)-5-methoxytetrahydro-2H-pyran 3,4-diol]
[5]
  fold induction at 10 µM: 2.3
[6]
  fold induction at 100 µM: 2.2

## COc1ccc(Cc2ccc(O[C@H]3OC[C@H](O)[C@H](O)[C@H]3O)cc2)c(Cl)c1 [Example 49, (2R,3R,4S,5S)-2-(4-(2-chloro-4-methoxybenzyl)phenoxy)tetrahydro-2H-pyran-3,4,5-triol]
[5]
  fold induction at 10 µM: 1
[6]
  fold induction at 100 µM: 1.1

## COc1ccc2cc(-c3ccc(O[C@H]4OC[C@H](O)[C@H](O)[C@H]4O)cc3)oc2c1 [Example 81, (2R,3R,4S,5S)-2-(4-(6-methoxybenzofuran-2-yl)phenoxy)tetrahydro-2H-pyran-3,4,5-triol]
[1]
  fold induction at 10 µM: 2.7
[2]
  fold induction at 100 µM: 3.6

## O[C@@H]1[C@@H](O)[C@@H](O)CO[C@@H]1Sc1ccc(Cc2ccccc2)cc1 [Example 26, (2R,3R,4S,5S)-2-((4-benzylphenyl)thio)tetrahydro-2H-pyran-3,4,5-thiol]
[3]
  fold induction at 10 µM: 2.1
[4]
  fold induction at 100 µM: 2.5

## O[C@@H]1[C@@H](O)[C@H](Oc2ccc(CN3CCCC3)cc2)OC[C@@H]1O [Example 75, (2S,3R,4S,5S)-2-(4-(pyrrolidin-1-ylmethyl)phenoxy)tetrahydro-2H-pyran-3,4,5-triol]
[1]
  fold induction at 10 µM: 1
[2]
  fold induction at 100 µM: 1

## CC(C)c1ccc(Oc2ccc(O[C@H]3OC[C@H](F)[C@H](O)[C@H]3O)cc2)cc1 [Example 58, (2R,3R,4R,5S)-5-fluoro-2-(4-(4-isopropylphenoxy)phenoxy)tetrahydro-2H-pyran-3,4-diol]
[5]
  fold induction at 10 µM: 2.6
[6]
  fold induction at 100 µM: 2.2

## COc1ccc2oc(-c3ccc(O[C@H]4OC[C@@H](O)[C@H](O)[C@H]4O)cc3)nc2c1 [Example 93, (2R,3R,4S,5R)-2-(4-(5-methoxybenzo[d]oxazol-2-yl)phenoxy)tetrahydro-2H-pyran-3,4,5-triol]
[1]
  fold induction at 10 µM: 2.8
[2]
  fold induction at 100 µM: 2.3

## COc1ccc(Oc2ccc(O[C@H]3OC[C@H](O)[C@H](O)[C@H]3O)cc2)cc1 [Example 55, (2R,3R,4S,5S)-2-(4-(4-methoxyphenoxy)phenoxy)tetrahydro-2H-pyran-3,4,5-triol]
[5]
  fold induction at 10 µM: 1.8
[6]
  fold induction at 100 µM: 2.9

## CCc1ccc2c(-c3ccc(O[C@@H]4OC[C@H](O)[C@H](O)[C@H]4O)cc3)coc2c1 [Example 96, (2S,3R,4S,5S)-2-(4-(6-ethylbenzofuran-3-yl)phenoxy)tetrahydro-2H-pyran-3,4,5-triol]
[1]
  fold induction at 10 µM: 2.6
[2]
  fold induction at 100 µM: 2.9
